# Assay results reported in US20160297763A1, “Heteroaryl hydroxamic acid derivatives and their use in the treatment, amelioration or prevention of a viral disease” (priority 2011, published 2016).
# System: influenza A virus A/Aichi/2/68 (H3N2)
# Test: Cytopathic effect (CPE) assay H3N2
# Type: cell-based, influenza A virus (H3N2) on MDCK cells
# Details: not given
# Procedure: A possible measure of the […] antiviral activity of the compounds having the formula I or II is the CPE assay disclosed herein. […] In this connection, the reduction in the virus-mediated cytopathic effect (CPE) upon treatment with the compounds was calculated as follows: The cell viability of infected-treated and uninfected-treated cells was determined using an ATP-based cell viability assay (Promega). The response in relative luminescent units (RLU) of infected-untreated samples was subtracted from the response (RLU) of the infected-treated samples and then normalized to the viability of the corresponding uninfected sample resulting in % CPE reduction.
# The influenza A virus (IAV) was obtained from American Tissue Culture Collection (A/Aichi/2/68 (H3N2); VR-547). Virus stocks were prepared by propagation of virus on Mardin-Darby canine kidney (MDCK; ATCC CCL-34) cells and infectious titres of virus stocks were determined by the 50% tissue culture infective dose (TCID50) analysis as described in Reed, L. J., and H. Muench. 1938, Am. J. Hyg. 27:493-497.
# MDCK cells were seeded in 96-well plates at 2×10^4 cells/well using DMEM/Ham's F-12 (1:1) medium containing 10% foetal bovine serum (FBS), 2 mM L-glutamine and 1 antibiotics (all from PAA). Until infection the cells were incubated for 5 hrs at 37° C., 5.0 CO2 to form a ˜80% confluent monolayer on the bottom of the well. Each test compound was dissolved in DMSO and generally tested at 25 μM and 250 μM. In those cases where the compounds were not soluble at that concentration they were tested at the highest soluble concentration. The compounds were diluted in infection medium (DMEM/Ham's F-12 (1:1) containing 5 μg/ml trypsin, and 1% antibiotics) for a final plate well DMSO concentration of 1%. The virus stock was diluted in infection medium (DMEM/Ham's F-12 (1:1) containing 5 μg/ml Trypsin, 1% DMSO, and 1% antibiotics) to a theoretical multiplicity of infection (MOI) of 0.05.
# After removal of the culture medium and one washing step with PBS, virus and compound were added together to the cells. In the wells used for cytotoxicity determination (i.e. in the absence of viral infection), no virus suspension was added. Instead, infection medium was added. Each treatment was conducted in two replicates. After incubation at 37° C., 5% CO2 for 48 hrs, each well was observed microscopically for apparent cytotoxicity, precipitate formation, or other notable abnormalities. Then, cell viability was determined using CellTiter-Glo luminescent cell viability assay (Promega). The supernatant was removed carefully and 65 μl of the reconstituted reagent were added to each well and incubated with gentle shaking for 15 min at room temperature. Then, 60 μl of the solution was transferred to an opaque plate and luminescence (RLU) was measured using Synergy HT plate reader (Biotek).
# Relative cell viability values of uninfected-treated versus uninfected-untreated cells were used to evaluate cytotoxicity of the compounds. Substances with a relative viability below 80% at the tested concentration were regarded as cytotoxic and retested at lower concentrations.
# Reduction in the virus-mediated cytopathic effect (CPE) upon treatment with the compounds was calculated as follows: The response (RLU) of infected-untreated samples was subtracted from the response (RLU) of the infected-treated samples and then normalized to the viability of the corresponding uninfected sample resulting in % CPE reduction.
row,SMILES,CPE H3N2 (insoluble): solubility in the assay
1,Cc1c(Cc2ccc(Cl)cc2)sc2nc(N)[nH]c(=O)c12 [SAV-7609],reduction (%) insoluble

# Same assay, conditions: Influenza A virus, H3N2, activity conc 1 (μM per method); read-out: CPE H3N2 reduction (%)
row,SMILES,inhibition at 1 µM [%]
1,CCONC(=O)c1cc(NCc2cccc(OCc3ccccc3)c2)ccn1,1.2
2,CCONC(=O)c1cc(NCCCc2cccc(Cl)c2)ccn1 [drawing 168],-0.3

# Same assay, conditions: Influenza A virus, H3N2, activity conc 2 (μM per method); read-out: CPE H3N2 reduction (%)
row,SMILES,inhibition at 2 µM [%]
1,CC(C)c1cccc(-c2ccc(C(=O)N(O)CCc3ccccc3)nc2)c1 [drawing 207],2.1
2,O=C(c1cc(-c2ccc(Cl)cc2)ccn1)N(O)Cc1ccccc1 [drawing 219],-6.7
3,COC1=CC=C(c2ccnc(C(=O)N(O)Cc3ccccc3)c2)CC1,-2.5
4,CC(C)c1cccc(-c2ccc(C(=O)NO)nc2)c1 [drawing 205],-2.1

# Same assay, conditions: Influenza A virus, H3N2, activity conc 5 (μM per method); read-out: CPE H3N2 reduction (%)
row,SMILES,inhibition at 5 µM [%]
1,O=C(c1cc(N2CCCCC2)cc[n+]1[O-])N(O)Cc1ccccc1,-1.83
2,Cc1c(-c2ccccc2)sc2nc(NC3CCCCC3)[nH]c(=O)c12 [SAV-7640],-3.2
3,O=C(NO)c1cc(-c2ccc(Cl)cc2)ccn1,26.6
4,NC(=O)c1cccc(-c2ccnc(C(=O)N(O)Cc3ccccc3)c2)c1 [drawing 221],-2.7
5,O=C(NO)c1cc(NCc2ccccc2)ccn1,-0.5
6,CC(C)(C)OC(=O)N1CC=C(c2ccnc(C(=O)N(O)Cc3ccccc3)c2)CC1 [drawing 229],1.2
7,O=C(NOCc1ccccc1)c1cc(N2CCCCC2)ccn1 [drawing 187],1
8,O=C(c1cc(-c2cccc(CO)c2)ccn1)N(O)Cc1ccccc1 [drawing 240],7.7
9,CC(C)(C)OC(=O)N1CCC=C(c2ccnc(C(=O)N(O)Cc3ccccc3)c2)C1 [drawing 256],10.2
10,O=C(c1cc(C2CCCCC2)ccn1)N(O)Cc1ccccc1 [drawing 258],-0.5
11,CCONC(=O)c1ccc(-c2ccccc2)cn1 [drawing 173],-3

# Same assay, conditions: Influenza A virus, H3N2, activity conc 20 (μM per method); read-out: CPE H3N2 reduction (%)
row,SMILES,inhibition at 20 µM [%]
1,CC(C)(C)OC(=O)N1CCC(c2ccnc(C(=O)N(O)Cc3ccccc3)c2)CC1,31.3
2,O=C(c1cc2ccccc2cn1)N(O)CCc1ccccc1 [drawing 202],-1.8
3,O=C(c1cc(N2CCC(F)(F)C2)ccn1)N(O)Cc1ccccc1,4.6
4,O=C(NO)c1cc(NS(=O)(=O)Cc2cc(Cl)cc(Cl)c2)ccn1,28.9
5,O=C(NOCc1ccccc1)c1ccc(N2CCCC2)cn1 [drawing 177],-8.7

# Same assay, conditions: Influenza A virus, H3N2, activity conc 25 (μM per method); read-out: CPE H3N2 reduction (%)
row,SMILES,inhibition at 25 µM [%]
1,O=C(c1ccc(N2CCCC2)cn1)N(O)Cc1ccccc1 [drawing 180],1

# Same assay, conditions: Influenza A virus, H3N2, activity conc 50 (μM per method); read-out: CPE H3N2 reduction (%)
row,SMILES,inhibition at 50 µM [%]
1,O=C(NO)c1cc(NS(=O)(=O)Cc2cccc(C(F)(F)F)c2)ccn1,-5.6
2,CN(OCc1ccccc1)C(=O)c1cc2ccccc2cn1 [drawing 184],0.6
3,CC1(C)C=C(c2ccnc(C(=O)N(O)Cc3ccccc3)c2)CC(C)(C)N1,2.8
4,O=C(c1cc(C2=CCC3(CC2)OCCO3)ccn1)N(O)Cc1ccccc1,5.4
5,O=C(NO)c1ccccn1,3.15
6,CCONC(=O)c1cc(NCC2CCN(Cc3ccccc3)CC2)ccn1,14.8
7,O=C(c1cc(NS(=O)(=O)Cc2cccc(Cl)c2)ccn1)N(O)Cc1ccccc1,9.5
8,O=C(c1cc(C2=CCCNC2)ccn1)N(O)Cc1ccccc1,9.5
9,CON(C)C(=O)c1cccc(C)n1,-0.9
10,O=C(NO)c1cc(NS(=O)(=O)Cc2ccc(F)cc2)ccn1,-1.4
11,O=C(c1cc(C2CCCNC2)ccn1)N(O)Cc1ccccc1 (stereo not shown),6.1
12,O=C(NO)c1cc2ccccc2cn1 [drawing 201],94.3
13,O=C(c1cc(N2CCC(F)CC2)ccn1)N(O)Cc1ccccc1,34
14,CCONC(=O)c1cccc(C)n1,-2.1
15,CN1CC=C(c2ccnc(C(=O)N(O)Cc3ccccc3)c2)CC1 [drawing 260],10.6
16,C[C@@H]1CN(c2ccnc(C(=O)N(O)Cc3ccccc3)c2)C[C@H](C)O1 [drawing 218],10.5
17,O=C(NO)c1cc(NS(=O)(=O)Cc2ccc(Cl)c(Cl)c2)ccn1,53.4
18,CC(C)(C)OC(=O)N1CCN(c2ccnc(C(=O)N(O)Cc3ccccc3)c2)CC1,34
19,O=C(c1cc(NS(=O)(=O)Cc2cccc(F)c2)ccn1)N(O)Cc1ccccc1,9.6
20,O=C(c1cc2ccccc2cn1)N(O)Cc1ccccc1 [drawing 200],34.2
21,COc1ccc2nc(C(=O)NOCc3ccccc3)ccc2c1,-1.9

row,SMILES,inhibition at 50 µM [%]
1,O=C(NO)c1cc(NS(=O)(=O)Cc2ccccc2Cl)ccn1,1.5
2,Cc1cccc(C(=O)NOCc2ccccc2)n1 [drawing 170],-2.7
3,CC(C)(C)OC(=O)NC1CCN(c2ccnc(C(=O)N(O)Cc3ccccc3)c2)CC1 [drawing 227],8.3
4,CN(C)CCNC(=O)c1cccc(-c2ccnc(C(=O)N(O)Cc3ccccc3)c2)c1 [drawing 230],8.9
5,O=C(NO)c1cc(NS(=O)(=O)Cc2ccccc2)ccn1,5.1
6,O=C(c1cc(NS(=O)(=O)Cc2ccc(F)cc2)ccn1)N(O)Cc1ccccc1,-1.1
7,CON(C)C(=O)c1cccc(C(=O)N(C)OC)n1,-0.3
8,O=C(NO)c1ccc(N2CCCC2)cn1 [drawing 204],-4.3
9,O=C(c1cc(N2CCC(N3CCCCC3)CC2)ccn1)N(O)Cc1ccccc1,18.8
10,CCONC(=O)c1ccc2c(=O)n(C)c(=O)n(C)c2n1,-0.4
11,Nc1ccccc1NC(=O)c1ccc(C(=O)NO)nc1,-5.53
12,O=C(NO)c1cc(NS(=O)(=O)Cc2ccc(Cl)cc2)ccn1,-3.98
13,O=C(c1cc(N2CCNCC2)ccn1)N(O)Cc1ccccc1,-4.5
14,O=C(c1cc(N2CCCC(F)(F)C2)ccn1)N(O)Cc1ccccc1 [drawing 224],8.9
15,O=C(c1cc(N2CCC(N3CCCC3)CC2)ccn1)N(O)Cc1ccccc1 [drawing 226],10.7
16,O=C(NO)c1cc(N2CCOCC2)ccn1 [drawing 212],-7.1
17,O=C(c1cc(N2CCC3(CC2)OCCO3)ccn1)N(O)Cc1ccccc1 [drawing 235],9.5
18,O=C(NO)c1cc(NS(=O)(=O)Cc2ccccc2F)ccn1,-0.5
19,CCON(C)C(=O)c1cccc(C)n1,-1.9
20,CCONC(=O)c1cc(N)ccn1,10.5
21,CN(O)C(=O)c1cc(N2CCOCC2)ccn1,5.7

# Same assay, conditions: Influenza A virus, H3N2, read-out: CPE H3N2 IC50 [μM]
row,SMILES,IC50 [µM]
1,Cc1cc(-c2sc3nc(N)[nH]c(=O)c3c2C)ccc1Cl [SAV-7620],29

# Same assay, conditions: Influenza A virus, H3N2, read-out: CPE H3N2 reduction (%), activity conc 5 (μM per method)
row,SMILES,inhibition at 5 µM [%]
1,Cc1c(-c2ccc(Cl)c(C(F)(F)F)c2)sc2nc(N)[nH]c(=O)c12 [SAV-7623],1.9

# Same assay, conditions: Influenza A virus, H3N2, read-out: CPE H3N2 reduction (%), activity conc 50 (μM per method)
row,SMILES,inhibition at 50 µM [%]
1,Cc1cc(-c2sc3nc(N)[nH]c(=O)c3c2C)ccc1Cl [SAV-7620],57.8
2,O=C(NO)c1cc(NS(=O)(=O)Cc2ccc(Cl)cc2Cl)ccn1,60.1
3,CCONC(=O)c1cc(N2CCOCC2)ccn1,1.3

# Same assay, conditions: Influenza A virus, H3N2; read-out: CPE H3N2 IC50
row,SMILES,IC50 [µM]
1,O=C(NO)c1cc2ccccc2cn1 [drawing 201],45

# Same assay, conditions: activity conc 5 (μM per method)
row,SMILES,CPE H3N2 reduction (%)
1,O=C(c1cc(N2CCCCC2)ccn1)N(O)Cc1ccccc1 [drawing 197],1.1

# Same assay, conditions: activity conc 50 (μM per method)
row,SMILES,CPE H3N2 reduction (%)
1,Cl.O=C(NO)c1cc(NS(=O)(=O)Cc2cccc(Cl)c2)ccn1 [drawing 267],5.9
2,O=C(c1cc(N2CCOCC2)ccn1)N(O)Cc1ccccc1 [drawing 241],−3.4
3,Cl.O=C(NO)c1cc(NS(=O)(=O)Cc2cccc(Cl)c2)ccn1 [drawing 288],2.29
